Laboratory results published in patent US20050124554A1, “Spermidine derivatives for the treatment of chronic neurodegenerative diseases” (priority 2002, published 2005).

Key:
[1] = system: acute hippocampal slices (CA1 pyramidal cell layer, Schaffer collateral stimulation); assay: Electrophysiology: evoked field responses / synaptic transmission; set-up: species or system Sprague-Dawley rats
Excerpt: All animal procedures to produce acute hippocampal slices were approved by the Home Office. Male, 250 g, Sprague-Dawley rats were deeply anaesthetised with halothane and decapitated. The brain was quickly removed, and the hippocampi dissected out and then cut into 300 μm thick transverse slices on a vibratome (Leica, Milton Keynes, UK) in cold cutting solution (in mM: 189 sucrose, 2.5 KCl, 26 NaHCO3, 1.2 NaH2PO4, 10 glucose, 5 MgCl2, 0.1 CaCl2) equilibrated with 5% CO2, 95% O2. Slices were transferred to aCSF (in mM: 10 glucose, 125 NaCl, 5 KCl, 26 NaHCO3, 1 MgCl2, 1.25 NaH2PO4, 2 CaCl2, 10 sucrose) at room temperature, bubbled with 5% CO2 and 95% O2, for at least 1 h before use.
Slices were then transferred to a submerged perfusion chamber (2 ml volume) for the electrophysiological recordings and were perfused at 10 ml min^−1 at 25° C. with aCSF equilibrated with 5% CO2 and 95% O2, and allowed to equilibrate for 1 h before manipulations were started. Experimental compounds were applied by bath perfusion. L-Arg3,4 was applied at 300 μM and DNQX was applied at 10 μM final concentration. DNQX was diluted from a 40 mM stock in DMSO (final DMSO of 0.025%). The Schaffer collaterals of CA3 were stimulated at voltages from 0 to 30 V with a constant voltage stimulator (Digitimer, Hertfordshire, UK) via a twisted pair stimulating electrode of polyimide coated stainless steel wire (Plastics One, Roanoke, Va.). Field potential responses were recorded with an Axopatch 200B amplifier (Axon Instruments, Foster City, Calif.) in the fast current clamp mode via a 2M KCl filled glass electrode (2-5 MQ) in the CA1 pyramidal cell layer. Responses were filtered at 2 kHz, digitised at 20 kHz with a Digidata 1320A (Axon Instruments), and stored onto hard disk with Clampex 8.1 software (Axon Instruments) running on a Dell Pentium III PC. Data was analysed in Clampfit 8.1 (Axon Instruments).
Stimulus-response (S/R) curves were generated from stimuli from 0 to 30 V in 2 V increments. Bath perfusion of 300 μM L-Arg3,4 in aCSF was applied for 10 min with a sub-maximal stimulus applied every minute to monitor synaptic transmission. A second S/R curve was generated before the perfusion was switched back to plain aCSF. A sub-maximal stimulus was applied every minute during the 15 min wash period after which a third SIR curve was generated. Perfusion of 10 μM DNQX was then started until the response to the sub-maximal stimulus was completely eliminated which always occurred within 10 min. […] In Clampfit, S/R curves were fit to a sigmoidal function of the form: [formula] where R is the magnitude of the evoked response, Rmax is the maximum response, V50 is the voltage which produces a half maximal response, S is the stimulus voltage, and m is proportional to the slope of the linear region of the sigmoid. Data was compared by one way ANOVA.

[2] = system: organotypic hippocampal slice cultures (CA1 pyramidal cell layer); assay: Experimental ischaemia (oxygen glucose deprivation), cell death by PI fluorescence; format: cell-based, Wistar rat
Description: Organotypic hippocampal slice cultures were prepared according to established methods (Pringle et al. (1997), Brain Res., 755, 36-46). In brief, Wistar rat pups (8-11 days old) were decapitated and the hippocampus rapidly dissected into ice-cold Gey's balanced salt solution (Gibco Life Technologies, Paisley, UK) supplemented with 4.5 mg ml^−1 glucose. Slices were separated and plated onto Millicell CM culture inserts (4 per well) and maintained at 37° C. and 5% CO2 for 14 days. Maintenance medium consisted of 25% heat-inactivated horse serum, 25% Hank's balanced salt solution (HBSS) and 50% minimum essential medium with added Earle's salts MM, ICN Biomedicals, Basingstoke, UK) supplemented with 1 mM glutamine and 4.5 mg ml^−1 glucose. Medium was changed every 3-4 days.
Experimental ischaemia or oxygen glucose deprivation was performed as described previously (Pringle et al. (1996), Stroke, 27, 2124-2130). Briefly, cultures were transferred to serum-free media (SFM, 75% MEM, 25% HDSS supplemented with 1 mM glutamine and 4.5 mg ml^−1 glucose) containing 5 μg ml^−1 of the fluorescent exclusion dye propidium iodide (PI). Cultures were allowed to equilibrate in SFM for 30 min prior to imaging, with or without L-Arg3,4. PI fluorescence was detected using a Leica inverted microscope as described below. Any cultures in which PI fluorescence was detected at this stage were excluded from further study. Ischaemia was induced by transferring cultures to glucose-free media (MEM with Earl's salts without glucose and supplemented with 1 mM glutamine) saturated with 95% N2 and 5% CO2. Culture plates (without lids) were then sealed into an airtight chamber (Billups-Rothenberg, Del Mar, Calif.) gassed with 95% N2 and 5% CO2 at 10 L min^−1 for 10 min before being sealed and placed at 37° C. for 50 min. At the end of the ischaemia, cultures were returned to normoxic SFM+PI, with or without compound at the indicated concentrations, and placed back in the incubator for 24 h.
Neuronal damage was assessed as described previously (Pringle et al. (1996), Stroke, 27, 2124-2130; Pringle et al. (1997), Brain Res., 755, 36-46). Light transmission images were captured prior to the induction of injury, and PI fluorescence images recorded at the end of the 24 h post-injury recovery period. All images were captured on an inverted Leica DM-IRBE epifluorescence microscope (Milton Keynes, UK) fitted with a 100 W Hg lamp and standard rhodamine optics (excitation 510-560 nm; dichroic mirror […]; emission>590 nm). Images were acquired with a 5×NA 0.12 lens and a cooled Hamamatsu digital camera and digitised at 12 bit resolution for analysis in OpenLab 2.1 (Improvision, Coventry, UK) running on a Macintosh G4/400. The area of the CA1 or CA3 cell layer was determined from the transmission image, and the area of PI fluorescence in that cell layers was measured using the density slice function within OpenLab. Neuronal damage was expressed as a percentage of the area in which PI fluorescence was detected above threshold within a cell layer divided by the total area of that cell layer. Protection was calculated as the difference between the damage for a given well and the average damage in untreated controls divided by the average damage in untreated controls. Groups were compared against corresponding control groups using the two tailed Student's t-test with significance indicated as * for P<0.05, and ** for P<0.01. Data is presented as mean±s.e.mean.

[3] = during bath perfusion of 300 μM, n=6
[4] = 300 μM applied 0 min post-injury
[5] = 300 μM applied 10 min post-injury
[6] = 300 μM applied 60 min post-injury

Compound: N=C(N)NCCCC(N)C(=O)NCCCNCCCCN [L-Arg3,4, L-arginyl-3,4-spermidine]
- effect on evoked responses ([1]; bath application, L-Arg3,4 300 μM, DNQX 10 μM): had no effect on evoked responses
- Rmax (maximum evoked response, S/R curve fit) [1, 3]: 2.71 ± 1.31 mV
- V50 (voltage producing half maximal response) [1, 3]: 15.98 ± 5.12 V
- m (proportional to slope of sigmoid) [1, 3]: 0.59 ± 0.48
- damage ([2]; 300 nM post-injury, dose study): did not reduce damage
- damage ([2]; 3 μM post-injury, dose study): 19±5%
- protection ([2]; 3 μM post-injury, dose study): 43%
- damage ([2]; 30 μM post-injury, dose study): 11±3%
- protection ([2]; 30 μM post-injury, dose study): 67%
- delay of administration post-ischaemia at which still neuroprotective (therapeutic window) ([2]; 300 μM): up to 60 min
- damage [2, 4]: 23±3%
- protection [2, 4]: 40%
- damage [2, 5]: 15±2%
- protection [2, 5]: 59%
- damage ([2]; 300 μM applied 30 min post-injury): 28±4%
- protection ([2]; 300 μM applied 30 min post-injury, not statistically significant): 26%
- damage [2, 6]: 26±3%
- protection [2, 6]: 30%
- damage ([2]; 300 μM post-injury, dose study): 23±3%
- protection ([2]; 300 μM post-injury, dose study): 32%
- protection ([2]; 300 μM pre-, during, and post-ischaemia (PDP)): 39%
- neurodegeneration (PI area as % of cell layer) ([2]; 300 μM pre-, during, and post-ischaemia (PDP), 1 h ischaemia, 24 h): 23±4%
